Numbered stars: 1 amine (or outer) side, 2 acyl side, 3 side chain; on linkers, the order of the positions; unused ones are H or OH. Bridge positions count the residues as written; N and C are the ends. Square brackets hold non-standard residues; d marks the D form. Peptide text beside a SMILES is read from it. * marks the point of attachment. Ala(piperidin-4-yl) = O=C([C@H](CC1CCN([*:3])CC1)N[*:1])[*:2]; DOTA = O=C(O)CN1CCN(CC(=O)O)CCN(CC(=O)*)CCN(CC(=O)O)CC1; Trp(7-Me) = Cc1cccc2c(C[C@H](N)C(=O)O)c[nH]c12; X3 = O=C([C@H](Cc1ccccc1CN[*:3])N[*:1])[*:2]; Phe(4-CH2NH2) = NCc1ccc(C[C@H](N)C(=O)O)cc1; 1Nal = N[C@@H](Cc1cccc2ccccc12)C(=O)O; 2Nal = N[C@@H](Cc1ccc2ccccc2c1)C(=O)O; NMetBuAla = CN[C@@H](CC(C)(C)C)C(=O)O; tBuAla = CC(C)(C)C[C@H](N)C(=O)O; αMeF = C[C@](N)(Cc1ccccc1)C(=O)O; AllylGly = C=CC[C@H](N)C(=O)O; Chg = N[C@H](C(=O)O)C1CCCCC1; Tle = CC(C)(C)[C@H](N)C(=O)O; αMeP = C[C@@]1(C(=O)O)CCCN1; Carboxymethyl = O=C(O)C*; dNMeA = CN[C@H](C)C(=O)O; Ahx = NCCCCCC(=O)O
Each molecule was assayed against T1, human DLL3 (Homo sapiens, UniProt Q9NYJ7) (assay: Affinity determination by Surface Plasmon Resonance (SPR), Biacore, 1:1 binding model). Details: biotinylated human DLL3 on streptavidin chip, 25° C.; NB = nonbinding.
T1 construct: biotin (biotinylated)
T1 sequence (Q9NYJ7 27-618): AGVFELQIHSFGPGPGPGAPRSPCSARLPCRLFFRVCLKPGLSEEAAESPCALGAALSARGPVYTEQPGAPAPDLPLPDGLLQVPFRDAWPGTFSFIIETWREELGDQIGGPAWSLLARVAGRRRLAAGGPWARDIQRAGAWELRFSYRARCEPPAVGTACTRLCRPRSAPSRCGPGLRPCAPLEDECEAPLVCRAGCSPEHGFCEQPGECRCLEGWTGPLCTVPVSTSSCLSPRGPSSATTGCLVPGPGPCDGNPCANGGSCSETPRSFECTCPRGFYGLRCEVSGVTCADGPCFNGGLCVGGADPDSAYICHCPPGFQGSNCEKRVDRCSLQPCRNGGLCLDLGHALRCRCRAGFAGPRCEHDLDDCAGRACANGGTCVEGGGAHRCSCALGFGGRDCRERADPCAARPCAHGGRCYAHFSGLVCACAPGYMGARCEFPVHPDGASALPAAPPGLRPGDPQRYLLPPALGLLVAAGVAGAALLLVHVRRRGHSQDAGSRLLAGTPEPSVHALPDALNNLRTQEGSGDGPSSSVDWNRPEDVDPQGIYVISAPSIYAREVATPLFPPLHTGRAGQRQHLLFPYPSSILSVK
How it was run: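 SPR with biotinylated human DLL3 captured on a streptavidin chip, with a reference surface subtracted. Samples were injected at several concentrations at 100 μL/min in phosphate buffer with 137 mM NaCl, 2.7 mM KCl, 0.05% P20 and 2% DMSO. Kinetic and affinity constants came from a 1:1 binding fit.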

Row | Kd | SPR KD (nM) | Structure (SMILES)
1 | > 30 nM |  | CC(=O)N[C@H](C(=O)N[C@@H](CO)C(=O)N[C@@H](CC(=O)O)C(=O)N[C@H]1C/C=C/C[C@@H](C(=O)N2CCC[C@@]2(C)C(=O)N[C@@H](Cc2ccccc2)C(=O)N[C@@H](CC(=O)O)C(=O)N[C@H](CCCCNC(=O)CN2CCN(CC(=O)O)CCN(CC(=O)O)CCN(CC(=O)O)CC2)C(N)=O)NC(=O)[C@H](CC(N)=O)NC(=O)[C@H](Cc2ccc3ccccc3c2)NC(=O)[C@H](CC2CCNCC2)NC(=O)[C@H](CC(C)(C)C)N(C)C(=O)[C@H](Cc2cccc3ccccc23)NC1=O)C1CCCCC1 [compound 186, Ac-Chg-S-D-AllyG(4)-(1Nal)-(NMe-Tba)-[3-(4-piperidinyl)-Ala]-(2Nal)-N-AllyG(4)-(aMe-P)-F -D-[D-Lys(DOTA)]-NH2] (Ac-[Chg]SD[AllylGly][1Nal][NMetBuAla][Ala(piperidin-4-yl)][2Nal]N[AllylGly][αMeP]FD[dK](DOTA)-NH2; staple (E) 4-10)
2 |  | heterogenous binding | CC(=O)N[C@@H](CC1CCNCC1)C(=O)N[C@@H](CO)C(=O)N[C@@H](CC(=O)O)C(=O)N[C@H]1C/C=C\C[C@@H](C(=O)N2CCC[C@@]2(C)C(=O)N[C@@H](Cc2ccccc2)C(=O)N[C@@H](CC(=O)O)C(N)=O)NC(=O)[C@H](CC(N)=O)NC(=O)[C@H](Cc2ccc3ccccc3c2)NC(=O)[C@H](Cc2ccc(CNC(=O)CN3CCN(CC(=O)O)CCN(CC(=O)O)CCN(CC(=O)O)CC3)cc2)NC(=O)[C@H](CC(C)(C)C)NC(=O)[C@H](Cc2cccc3ccccc23)NC1=O [compound 198, Ac-(D-Ala)-S-D-AllyG(4)-(1Nal)-(t-Bu-Ala)-[PAF(DOTA)]-(2Nal)-N-AllyG(4)-(aMe-P)-F-D-CONH2] (Ac-[Ala(piperidin-4-yl)]SD[AllylGly][1Nal][tBuAla][Phe(4-CH2NH2)](DOTA)[2Nal]N[AllylGly][αMeP]FD-NH2; staple (Z) 4-10)
3 | 1.21 nM |  | CC(=O)N[C@H](C)C(=O)N[C@@H](CO)C(=O)N[C@@H](CC(=O)O)C(=O)N[C@H]1CSSC[C@@H](C(=O)N2CCC[C@@]2(C)C(=O)N[C@@H](Cc2ccccc2)C(=O)N[C@@H](CC(=O)O)C(=O)N[C@H](CCCCNC(=O)CN2CCN(CC(=O)O)CCN(CC(=O)O)CCN(CC(=O)O)CC2)C(N)=O)NC(=O)[C@H](CC(N)=O)NC(=O)[C@H](Cc2ccc3ccccc3c2)NC(=O)[C@H](CCC(N)=O)NC(=O)[C@H](CC(C)(C)C)N(C)C(=O)[C@H](Cc2cccc3ccccc23)NC1=O [compound 171, Ac-(D-Ala)-S-D-C(3)-(1Nal)-(NMe-Tba)-Q-(2Nal)-N-C(3)-(aMe-P)-F -D-[D-Lys(DOTA)]-NH2] (Ac-[dA]SDC[1Nal][NMetBuAla]Q[2Nal]NC[αMeP]FD[dK](DOTA)-NH2; disulfide 4-10)
4 | > 30 nM |  | CC(=O)N[C@H](C(=O)N[C@@H](CO)C(=O)N[C@@H](CC(=O)O)C(=O)N[C@H]1CSSC[C@@H](C(=O)N2CCC[C@@]2(C)C(=O)N[C@@H](Cc2ccccc2)C(=O)N[C@@H](CC(=O)O)C(=O)N[C@H](CCCCNC(=O)CN2CCN(CC(=O)O)CCN(CC(=O)O)CCN(CC(=O)O)CC2)C(N)=O)NC(=O)[C@H](CC(N)=O)NC(=O)[C@H](Cc2c[nH]c3c(C)cccc23)NC(=O)[C@H](CC2CCNCC2)NC(=O)[C@H](CC(C)(C)C)N(C)C(=O)[C@H](Cc2cccc3ccccc23)NC1=O)C1CCCCC1 [compound 184, Ac-Chg-S-D-C(3)-(1Nal)-(NMe-Tba)-[3-(4-piperidinyl)-Ala]-(7Me-W)-N-C(3)-(aMe-P)-F -D-[D-Lys(DOTA)]-NH2] (Ac-[Chg]SDC[1Nal][NMetBuAla][Ala(piperidin-4-yl)][Trp(7-Me)]NC[αMeP]FD[dK](DOTA)-NH2; disulfide 4-10)

Second part, the molecule before the results:

Row | Structure (SMILES) | Kd | SPR KD (nM)
5 | CC(=O)N[C@H](C(=O)N[C@@H](CO)C(=O)N[C@@H](CC(=O)O)C(=O)N[C@H]1CSSC[C@@H](C(=O)N(C)[C@H](C)C(=O)N[C@@](C)(Cc2ccccc2)C(=O)N[C@@H](CC(=O)O)C(=O)N[C@H](CCCCNC(=O)CN2CCN(CC(=O)O)CCN(CC(=O)O)CCN(CC(=O)O)CC2)C(N)=O)NC(=O)[C@H](CC(N)=O)NC(=O)[C@H](Cc2c[nH]c3ccccc23)NC(=O)[C@H](CCC(N)=O)NC(=O)[C@H](CC(C)C)NC(=O)[C@H](Cc2cccc3ccccc23)NC1=O)C1CCCCC1 [compound 109, Ac-(Chg)-S-D-C(3)-(1Nal)-L-Q-W-N-C(3)-(NMeD-Ala)-(aMe-F)-D-D-Lys(DOTA)-CONH2] (Ac-[Chg]SDC[1Nal]LQWNC[dNMeA][αMeF]D[dK](DOTA)-NH2; disulfide 4-10) | 0.96 nM | 
6 | CSCC[C@H](NC(C)=O)C(=O)N[C@@H](CO)C(=O)N[C@@H](CC(=O)O)C(=O)N[C@H]1CSSC[C@@H](C(=O)N2CCC[C@H]2C(=O)N[C@@H](C)C(=O)N[C@@H](CC(=O)O)C(N)=O)NC(=O)[C@H](CC(N)=O)NC(=O)[C@H](Cc2c[nH]c3ccccc23)NC(=O)[C@H](CCC(N)=O)NC(=O)[C@H](CC(C)C)NC(=O)[C@H](Cc2c[nH]c3ccccc23)NC1=O [compound 28, Ac-M-S-D-C(3)-W-L-Q-W-N-C(3)-P-(L-Ala)-D-CONH2] (Ac-MSDCWLQWNCPAD-NH2; disulfide 4-10) | > 100 nM | 
7 | CC(=O)N[C@H](C)C(=O)N[C@@H](CO)C(=O)N[C@@H](CC(=O)O)C(=O)N[C@H]1CSSC[C@@H](C(=O)N2CCC[C@@]2(C)C(=O)N[C@@H](Cc2ccccc2CNC(=O)CN2CCN(CC(=O)O)CCN(CC(=O)O)CCN(CC(=O)O)CC2)C(=O)N[C@@H](CC(=O)O)C(N)=O)NC(=O)[C@H](CC(N)=O)NC(=O)[C@H](Cc2ccc3ccccc3c2)NC(=O)[C@H](CCC(N)=O)NC(=O)[C@H](CC(C)(C)C)NC(=O)[C@H](Cc2cccc3ccccc23)NC1=O [compound 159, Ac-(D-Ala)-S-D-C(3)-(1Nal)-(t-Bu-Ala)-Q-(2Nal)-N-C(3)-(aMe-P)-[OAF(DOTA)]-D-CONH2] (Ac-[dA]SDC[1Nal][tBuAla]Q[2Nal]NC[αMeP][X3](DOTA)D-NH2; disulfide 4-10) | > 30 nM | 
8 | CC(=O)N[C@@H](CCC(=O)O)C(=O)N[C@@H](CO)C(=O)N[C@@H](CC(=O)O)C(=O)N[C@H]1CSSC[C@@H](C(=O)N2CCC[C@H]2C(=O)N[C@@H](Cc2ccccc2)C(=O)N[C@@H](CC(=O)O)C(=O)N[C@H](CCCCNC(=O)CN2CCN(CC(=O)O)CCN(CC(=O)O)CCN(CC(=O)O)CC2)C(N)=O)NC(=O)[C@H](CC(N)=O)NC(=O)[C@H](Cc2c[nH]c3ccccc23)NC(=O)[C@H](CCC(N)=O)NC(=O)[C@H](CC(C)C)NC(=O)[C@H](Cc2c[nH]c3ccccc23)NC1=O [compound 81, Ac-Glu-S-D-C(3)-W-L-Q-W-N-C(3)-P-F-D-D-Lys(DOTA)-CONH2] (Ac-ESDCWLQWNCPFD[dK](DOTA)-NH2; disulfide 4-10) | 12.3 nM | 
9 | CC(=O)N[C@H](C(=O)N[C@@H](CO)C(=O)N[C@@H](CC(=O)O)C(=O)N[C@H]1CSSC[C@@H](C(=O)N2CCC[C@H]2C(=O)N[C@@H](Cc2ccccc2)C(=O)N[C@@H](CC(=O)O)C(=O)N[C@H](CCCCNC(=O)CN2CCN(CC(=O)O)CCN(CC(=O)O)CCN(CC(=O)O)CC2)C(N)=O)NC(=O)[C@H](CC(N)=O)NC(=O)[C@H](Cc2c[nH]c3ccccc23)NC(=O)[C@H](CCC(N)=O)NC(=O)[C@H](CC(C)C)NC(=O)[C@H](Cc2c[nH]c3ccccc23)NC1=O)C(C)(C)C [compound 76, Ac-tBuGly-S-D-C(3)-W-L-Q-W-N-C(3)-P-F-D-D-Lys(DOTA)-CONH2] (Ac-[Tle]SDCWLQWNCPFD[dK](DOTA)-NH2; disulfide 4-10) | 12 nM | 
10 | CC(C)C[C@@H]1NC(=O)[C@H](Cc2c[nH]c3ccccc23)NC(=O)[C@@H](NC(=O)[C@H](CC(=O)O)NC(=O)[C@H](CO)NC(=O)CCCCCNC(=O)CN2CCN(CC(=O)O)CCN(CC(=O)O)CCN(CC(=O)O)CC2)CSSC[C@@H](C(=O)N2CCC[C@H]2C(=O)N[C@@H](Cc2ccc(OCC(=O)O)cc2)C(=O)N[C@@H](CC(=O)O)C(N)=O)NC(=O)[C@H](CC(N)=O)NC(=O)[C@H](Cc2c[nH]c3ccccc23)NC(=O)[C@H](CCC(N)=O)NC1=O [compound 37, DOTA-Ahx-S-D-C(3)-W-L-Q-W-N-C(3)-P-(4-CMF)-D-CONH2] ({DOTA-Ahx}-SDCWLQWNCPY(Carboxymethyl)D-NH2; disulfide 3-9) | > 100 nM | 
11 | CC(=O)N[C@H](C)C(=O)N[C@@H](CO)C(=O)N[C@@](C)(CC(=O)O)C(=O)N[C@H]1C/C=C/C[C@@H](C(=O)N2CCC[C@@]2(C)C(=O)N[C@@H](Cc2ccccc2)C(=O)N[C@@H](CC(=O)O)C(N)=O)NC(=O)[C@H](CC(N)=O)NC(=O)[C@H](Cc2ccc3ccccc3c2)NC(=O)[C@H](Cc2ccc(CNC(=O)CN3CCN(CC(=O)O)CCN(CC(=O)O)CCN(CC(=O)O)CC3)cc2)NC(=O)[C@H](CC(C)(C)C)NC(=O)[C@H](Cc2cccc3ccccc23)NC1=O (single isomer, unassigned) [Cpd #193, Ac-(D-Ala)-S-(aMe-Asp)-AllyG(4)-(1Nal)-(t-Bu-Ala)-[PAF(DOTA)]-(2Nal)-N-AllyG(4)-(aMe-P)-F-D-CONH2] | 0.113 nM | 
12 | CSCC[C@H](NC(C)=O)C(=O)N[C@@H](C)C(=O)N[C@@H](CC(=O)O)C(=O)N[C@H]1CSSC[C@@H](C(=O)N2CCC[C@H]2C(=O)N[C@@H](Cc2ccccc2)C(=O)N[C@@H](CC(=O)O)C(N)=O)NC(=O)[C@H](CC(N)=O)NC(=O)[C@H](Cc2c[nH]c3ccccc23)NC(=O)[C@H](CCC(N)=O)NC(=O)[C@H](CC(C)C)NC(=O)[C@H](Cc2c[nH]c3ccccc23)NC1=O [compound 20, Ac-M-(L-Ala)-D-C(3)-W-L-Q-W-N-C(3)-P-F-D-CONH2] (Ac-MADCWLQWNCPFD-NH2; disulfide 4-10) | > 100 nM | 
